Holding throughout (assay type): in vivo
In experiment [1] the test system is pigweed (Amaranthus retroflexus). Kind of experiment: Test A postemergence. The settings on record: Amaranthus retroflexus, post-emergence, 240 h, 125 g ai/ha, postemergence, visual injury rating after approximately 10 d; read-out: Pigweed plant response rating (0 to 100 scale, 0 no effect, 100 complete control). The gist of the method: (§1)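 Visual injury scores from 0, no effect, to 100, complete control, were assigned versus untreated controls roughly 10 d after treatment in the greenhouse. Test chemicals, formulated with surfactant in a non-phytotoxic solvent, were applied to planted seeds as a preemergence soil spray or postemergence to one- to two-leaf plants 2 to 10 cm tall, in loam–sand soil.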

Experiment [2] has as its system ragweed (common ragweed, Ambrosia elatior). Kind of experiment: Test A postemergence. Particulars: Ambrosia artemisiifolia, post-emergence, 240 h, 125 g ai/ha, postemergence, visual injury rating after approximately 10 d; read-out: Ragweed plant response rating (0 to 100 scale, 0 no effect, 100 complete control). The gist of the method:
as §1

For experiment [3], the system named is giant foxtail (Setaria faberii). The experiment is described as follows: Test A postemergence. The settings on record: Setaria faberi, post-emergence, 240 h, 125 g ai/ha, postemergence, visual injury rating after approximately 10 d; read-out: Foxtail, Giant plant response rating (0 to 100 scale, 0 no effect, 100 complete control). The gist of the method: as §1

The subject of experiment [4] is ryegrass, Italian (Italian ryegrass, Lolium multiflorum). The experiment is described as follows: Test A postemergence. The settings on record: Lolium multiflorum, post-emergence, 240 h, 125 g ai/ha, postemergence, visual injury rating after approximately 10 d; read-out: Ryegrass, Italian plant response rating (0 to 100 scale, 0 no effect, 100 complete control). In outline:
as §1

Experiment [5] has as its system blackgrass (Alopecurus myosuroides). The experiment is described as follows: Test A postemergence. Particulars: Alopecurus myosuroides, post-emergence, 240 h, 125 g ai/ha, postemergence, visual injury rating after approximately 10 d; read-out: Blackgrass plant response rating (0 to 100 scale, 0 no effect, 100 complete control). The gist of the method: as §1
The test system of experiment [6] is wheat (Triticum aestivum). The experiment is described as follows: Test A postemergence. The settings on record: Triticum aestivum, post-emergence, 240 h, 125 g ai/ha, postemergence, visual injury rating after approximately 10 d; read-out: Wheat plant response rating (0 to 100 scale, 0 no effect, 100 complete control). In outline:
as §1

The test system of the next experiment is corn (Zea mays). Kind of experiment: Test A postemergence. The settings on record: Zea mays, post-emergence, 240 h, 125 g ai/ha, postemergence, visual injury rating after approximately 10 d; read-out: Corn plant response rating (0 to 100 scale, 0 no effect, 100 complete control). The gist of the method: as §1
The test system of experiment [7] is barnyardgrass (Echinochloa crus-galli). Kind of experiment: Test A postemergence. Particulars: Echinochloa crus-galli, post-emergence, 240 h, 125 g ai/ha, postemergence, visual injury rating after approximately 10 d; read-out: Barnyardgrass plant response rating (0 to 100 scale, 0 no effect, 100 complete control). In outline:
as §1

The subject of experiment [8] is Galium (catchweed bedstraw, Galium aparine). Kind of experiment: Test A postemergence. Particulars: Galium, post-emergence, 240 h, 125 g ai/ha, postemergence, visual injury rating after approximately 10 d; read-out: Galium plant response rating (0 to 100 scale, 0 no effect, 100 complete control). The gist of the method:
as §1

The test system of experiment [9] is pigweed (Amaranthus retroflexus). Kind of experiment: Test A preemergence. The settings on record: Amaranthus retroflexus, pre-emergence, 240 h.
In experiment [10] the test system is ragweed (common ragweed, Ambrosia elatior). Kind of experiment: Test A preemergence. Particulars: Ambrosia artemisiifolia, pre-emergence, 240 h. In outline:
as §1

The next experiment has as its system Kochia (Kochia scoparia). Kind of experiment: Test A preemergence. Particulars: Bassia scoparia, pre-emergence, 240 h. The gist of the method: as §1
Experiment [11] deals with giant foxtail (Setaria faberii). The experiment is described as follows: Test A preemergence. Particulars: Setaria faberi, pre-emergence, 240 h. In outline: as §1
In experiment [12] the test system is ryegrass, Italian (Italian ryegrass, Lolium multiflorum). Kind of experiment: Test A preemergence. Particulars: Lolium multiflorum, pre-emergence, 240 h. In outline:
as §1

The subject of experiment [13] is barnyardgrass (Echinochloa crus-galli). The experiment is described as follows: Test A preemergence. The settings on record: Echinochloa crus-galli, pre-emergence, 240 h. The gist of the method: as §1

Pest or weed control and plant injury data for one compound are collected here from US12077503B2, “Substituted cyclic amides and their use as herbicides” (FMC CORPORATION, priority 2015, dated 2024).

For `N#Cc1cccc(NC(=O)[C@H]2C(=O)NC[C@@H]2c2cccc(C(F)(F)F)c2)c1F` [Compound 829], the pest or weed control at 125 g/ha is 0% in experiment [1]; 0% in [2]; 90% in experiment [3]; 20% in [4]; 40% in experiment [5]; 80% in experiment [7]. Besides, the pest or weed control at 125 g/ha worked out at 30% in experiment [8]; 0% in experiment [9] (125 g ai/ha, preemergence, 0 to 100 scale where 0 is no effect and 100 is complete control, read-out: Pigweed plant response rating); 30% in experiment [10] (125 g ai/ha, preemergence, 0 to 100 scale where 0 is no effect and 100 is complete control, read-out: Ragweed plant response rating); 60% in the experiment with Kochia (Kochia scoparia) (125 g ai/ha, preemergence, 0 to 100 scale where 0 is no effect and 100 is complete control, read-out: Kochia plant response rating); 90% in [11] (125 g ai/ha, preemergence, 0 to 100 scale where 0 is no effect and 100 is complete control, read-out: Foxtail, Giant plant response rating); 20% in [12] (125 g ai/ha, preemergence, 0 to 100 scale where 0 is no effect and 100 is complete control, read-out: Ryegrass, Italian plant response rating). Also, in experiment [13] (125 g ai/ha, preemergence, 0 to 100 scale where 0 is no effect and 100 is complete control, read-out: Barnyardgrass plant response rating), the pest or weed control at 125 g/ha stood at 90%. Besides, the plant injury at 125 g/ha (in [6]; in the experiment with corn (Zea mays)) was 30% each time. Moreover, the pest or weed control at 500 g/ha in [9] (500 g ai/ha, Preemergence, visual injury vs untreated controls after approximately 10 d, read-out: Pigweed plant response rating (0 to 100 scale where 0 is no effect and 100 is complete control)) is 60%; in [10] (500 g ai/ha, Preemergence, visual injury vs untreated controls after approximately 10 d, read-out: Ragweed plant response rating (0 to 100 scale where 0 is no effect and 100 is complete control)), 70%; with Kochia (Kochia scoparia) (500 g ai/ha, Preemergence, visual injury vs untreated controls after approximately 10 d, read-out: Kochia plant response rating (0 to 100 scale where 0 is no effect and 100 is complete control)), 90%; in experiment [11] (500 g ai/ha, Preemergence, visual injury vs untreated controls after approximately 10 d, read-out: Foxtail, Giant plant response rating (0 to 100 scale where 0 is no effect and 100 is complete control)) it was 90%; in [12] (500 g ai/ha, Preemergence, visual injury vs untreated controls after approximately 10 d, read-out: Ryegrass, Italian plant response rating (0 to 100 scale where 0 is no effect and 100 is complete control)) it was 40%; in experiment [13] (500 g ai/ha, Preemergence, visual injury vs untreated controls after approximately 10 d, read-out: Barnyardgrass plant response rating (0 to 100 scale where 0 is no effect and 100 is complete control)), 90%.
